From US20250332173A1, “COMPOUNDS AND METHODS FOR MODULATING NUCLEIC ACID SPLICING” (REMIX THERAPEUTICS INC., priority 2021, published 2025)
Like-named read-outs stand apart in the source and are kept apart here.

Experiments:
[1] = system: HTT mRNA; test: RT-qPCR splicing assay, HTT canonical junction (CJ) and alternative junction (AJ) mRNA; type: cell-based, human; details: Homo sapiens; for AC50: increase in HTT alternative junction (AJ) mRNA, read-out: HTT AJ AC50
In short: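 Following a 24-hour incubation of A673 or K562 cells with serially diluted compound (3-fold steps, highest final 10 uM), the lysates undergo cDNA synthesis plus qPCR. Canonical and alternative junctions are each quantified against PPIA, GAPDH or GUSB.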

[2] = system: K562 (human chronic myelogenous leukemia) cells; test: Cell Titer Glo 2.0 cell viability assay; type: cell-based; details: Homo sapiens, K562, 72 h, K562 cells, 72 hours, Cell Titer Glo 2.0; read-out: K562 GI50
[3] = system: MYB; test: HiBiT protein abundance assay, MYB HiBiT K562 cell line; type: cell-based, human; details: HiBiT K562 cell line, 24 hours, top dose 10 μM; read-out: Effect on protein abundance, MYB (IC50 category)
In short: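 Endogenous targets in K562 knock-in lines carried a HiBiT tag and were treated for 24 h at 37 °C with 10-point 3-fold dilutions (top 10 μM final, DMSO ≤0.25%). Abundance was read as lytic Nano-Glo HiBiT luminescence. IC50 came from a four-parameter logistic fit of normalized response.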

[4] = decrease in HTT canonical junction (CJ) mRNA, RT-qPCR, read-out: HTT CJ IC50
[5] = Table 5 panel, canonical junction qPCR, compound concentration having 50% response in CJ decrease, read-out: HTT IC50 (decrease in CJ mRNA levels)

Structure (SMILES)	IC50 [1, 4] [µM]	IC50 [1, 5] [µM]	GI50 [2] [µM]	IC50 [3] [µM]	AC50 ([1]; RT-qPCR) [µM]
Cc1cn2cc(-c3cc(F)c4c(=O)n(C5CCNC5)ccc4c3)cc(C#N)c2n1 (stereo not shown) [Compound 434, 6-[8-fluoro-1-oxo-2-(pyrrolidin-3-yl)isoquinolin-6-yl]-2-methylimidazo[1,2-a]pyridine-8-carbonitrile]	> 10	> 10	1 to 10	1 to 10	> 10
Cc1cn2cc(-c3cc(F)c4c(=O)n(C5CCNCC5)ccc4c3)cc(C#N)c2n1 [Compound 383, 6-[8-fluoro-1-oxo-2-(piperidin-4-yl)isoquinolin-6-yl]-2-methylimidazo[1,2-a]pyridine-8-carbonitrile]	1 to 10	0.1 to 1	0.1 to 1	< 0.1	0.1 to 1
COc1cc(-c2cc(C)c3nc(C)cn3n2)cc2ccn(C3CCNCC3)c(=O)c12 [Compound 399, 6-{2,8-dimethylimidazo[1,2-b]pyridazin-6-yl}-8-methoxy-2-(piperidin-4-yl)isoquinolin-1-one]	0.1 to 1	0.1 to 1	0.1 to 1	0.1 to 1	0.1 to 1
Cc1cn2nc(-c3cc(C)c4c(=O)n(C5CCNC6(CC6)C5)ccc4c3)cc(C)c2n1 (stereo in doubt) [Compound 397, (S)-6-(2,8-dimethylimidazo[1,2-b]pyridazin-6-yl)-8-methyl-2-(4-azaspiro[2.5]octan-7-yl)isoquinolin-1(2H)-one]	< 0.1	< 0.1	0.1 to 1	< 0.1	< 0.1
Cc1c(O)c(-c2cc(F)c3c(=O)n(C4CCNC5(CC5)C4)ccc3c2)cc2cn(C)nc12 (stereo not shown) [Compound 419, 2-{4-azaspiro[2.5]octan-7-yl}-8-fluoro-6-(6-hydroxy-2,7-dimethylindazol-5-yl)isoquinolin-1-one]	> 10	> 10	> 10	1 to 10	> 10
Cc1nc2c(C)cc(-c3cc(F)c4c(=O)n(C5CCNC6(CC6)C5)ccc4c3)cc2o1 (stereo not shown) [Compound 418, 2-{4-azaspiro[2.5]octan-7-yl}-6-(2,4-dimethyl-1,3-benzoxazol-6-yl)-8-fluoroisoquinolin-1-one]	< 0.1	< 0.1	0.1 to 1	< 0.1	< 0.1
Cn1cc2nc(-c3ccc4c(=O)n(C5CCNC6(CC6)C5)ncc4c3)ccc2n1 (stereo not shown) [Compound 511]	0.1 to 1	0.1 to 1	1 to 10	0.1 to 1	0.1 to 1
Cc1cc(-c2ccc3c(=O)n(C4CCN(C)CC4)cnc3n2)cc2cn(C)nc12 [Compound 173]	> 10	> 10	1 to 10	> 10	> 10
Cc1cc(-c2cc(F)c3c(=O)n(C4CCNC5(CC5)C4)ccc3c2)nc2cn(C)nc12 (stereo not shown) [Compound 431]	< 0.1	< 0.1	0.1 to 1	< 0.1	< 0.1
Cc1cn2nc(-c3cc(F)c4c(=O)n([C@H]5CCNC6(CC6)C5)ncc4c3)cc(C)c2n1 [Compound 447]	< 0.1	< 0.1	0.1 to 1	< 0.1	< 0.1
Cc1cn2cc(-c3cc(F)c4c(=O)n(C5CCNCC5)ccc4c3)cc(F)c2n1 [Compound 370]	< 0.1	< 0.1	< 0.1	< 0.1	< 0.1
Cc1cn2cc(-c3ccc4c(=O)n([C@H]5CCNC5)cc(C)c4c3)cc(C#N)c2n1 [Compound 456, (S)-2-methyl-6-(4-methyl-1-oxo-2-(pyrrolidin-3-yl)-1,2-dihydroisoquinolin-6-yl)imidazo[1,2-a]pyridine-8-carbonitrile]	> 10	> 10	> 10	1 to 10	> 10
Cc1cn2nc(-c3ccc4c(=O)n([C@H]5CCNC[C@H]5F)cnc4c3)cc(C)c2n1 [Compound 372]	0.1 to 1	0.1 to 1	1 to 10	0.1 to 1	0.1 to 1
Cc1cc(-c2ccc3c(=O)n(C4CCNCC4)cnc3c2)cc2cn(C)nc12 [Compound 174]	0.1 to 1	0.1 to 1	0.1 to 1	< 0.1	0.1 to 1
Cn1cc2c(n1)CCN(c1ccc3c(=O)n(C4CCNCC4)ccc3c1)C2 [Compound 509, 6-{2-methyl-4H,6H,7H-pyrazolo[4,3-c]pyridin-5-yl}-2-(piperidin-4-yl)isoquinolin-1-one]	> 10	> 10	> 10	> 10	> 10

More lines, main results first:

IC50 [1, 4] [µM]	IC50 [1, 5] [µM]	GI50 [2] [µM]	IC50 [3] [µM]	Structure (SMILES)	AC50 ([1]; RT-qPCR) [µM]
> 10	> 10	> 10	> 10	Cc1cn2cc(-n3ccc4cc(N5C[C@@H](C)N[C@@H](C)C5)ccc4c3=O)nc(C)c2n1 [Compound 454, 2-{2,8-dimethylimidazo[1,2-a]pyrazin-6-yl}-6-[(3R,5S)-3,5-dimethylpiperazin-1-yl]isoquinolin-1-one]	> 10
> 10	> 10	> 10	1 to 10	Cn1cc2c(n1)CCN(c1cc(F)c3c(=O)n(C4CCNCC4)cnc3c1)C2 [Compound 365, 5-fluoro-7-(2-methyl-2,4,6,7-tetrahydro-5H-pyrazolo[4,3-c]pyridin-5-yl)-3-(piperidin-4-yl)quinazolin-4(3H)-one]	> 10
< 0.1	< 0.1	< 0.1	< 0.1	Cc1cn2nc(-c3cc(C#N)c4c(=O)n(C5CCNC6(CC6)C5)ccc4c3)cc(C)c2n1 (stereo not shown) [Compound 387]	< 0.1
> 10	> 10	1 to 10	1 to 10	Cc1cn2cc(-c3ccc4c(=O)n([C@@H]5CCNC5)cc(C)c4c3)cc(F)c2n1 [Compound 452, (R)-6-(8-fluoro-2-methylimidazo[1,2-a]pyridin-6-yl)-4-methyl-2-(pyrrolidin-3-yl)isoquinolin-1(2H)-one]	> 10
1 to 10	1 to 10	1 to 10	1 to 10	Cc1cn2cc(-c3cc(F)c4c(=O)n(C5CCOC5)cnc4c3)cc(C#N)c2n1 (stereo not shown) [Compound 366, 6-[5-fluoro-4-oxo-3-(oxolan-3-yl)quinazolin-7-yl]-2-methylimidazo[1,2-a]pyridine-8-carbonitrile]	1 to 10
> 10	> 10	> 10	> 10	Cc1cn2cc(-c3cc(F)c4c(=O)n(C5CCNC6(CC6)C5)ccc4c3)c(O)c(C)c2n1 (stereo not shown) [Compound 421, 2-{4-azaspiro[2.5]octan-7-yl}-8-fluoro-6-{7-hydroxy-2,8-dimethylimidazo[1,2-a]pyridin-6-yl}isoquinolin-1-one]	> 10
< 0.1	< 0.1	1 to 10	1 to 10	Cc1cn2nc(-c3ccc4c(=O)n([C@H]5CCNC6(CC6)C5)ncc4c3)cc(C)c2n1 [Compound 369, 2-[(7S)-4-azaspiro[2.5]octan-7-yl]-6-{2,8-dimethylimidazo[1,2-b]pyridazin-6-yl}phthalazin-1-one]	< 0.1
< 0.1	< 0.1	< 0.1	< 0.1	Cc1cn2nc(-c3cc(O)c4c(=O)n(C5CCNCC5)ccc4c3)cc(C)c2n1 [Compound 391, 6-(2,8-dimethylimidazo[1,2-b]pyridazin-6-yl)-8-hydroxy-2-(piperidin-4-yl)isoquinolin-1(2H)-one]	< 0.1
1 to 10	1 to 10	1 to 10	1 to 10	Cc1cc(-c2ccc3c(=O)n([C@@H]4CCNC[C@H]4F)ncc3c2)cc2cn(C)nc12 [Compound 378]	1 to 10
< 0.1	< 0.1	0.1 to 1	< 0.1	Cc1cn2nc(-c3cc(F)c4c(=O)n(C5CCN(C)CC5)ccc4c3)cc(C)c2n1 [Compound 400, 6-(2,8-dimethylimidazo[1,2-b]pyridazin-6-yl)-8-fluoro-2-(1-methylpiperidin-4-yl)isoquinolin-1(2H)-one]	< 0.1
> 10	> 10	1 to 10	1 to 10	Cc1nc2c(F)cc(-c3cc(F)c4c(=O)n(C5CCNC6(CC6)C5)ccc4c3)cc2n1C (stereo not shown) [Compound 430, 8-fluoro-6-(4-fluoro-1,2-dimethyl-1H-benzo[d]imidazol-6-yl)-2-(4-azaspiro[2.5]octan-7-yl)isoquinolin-1(2H)-one]	> 10
